Data published in article PMC4503722, “Novel Phenotypic Outcomes Identified for a Public Collection of Approved Drugs from a Publicly Accessible Panel of Assays” (PLoS ONE, 2015).
Like-named read-outs stand apart in the source and are kept apart here.

Experiments:
[1] = system: HCT116 cells treated with a GSK3β inhibitor; assay: cells; format: cell-based; conditions: for IC50/EC50, GSK3b inh pretreated_Viability ATP HCT116 (assay number 26): GSK3b inh pretreated
RKO = assay: cells; format: cell-based
Colo320 = assay: cells; format: cell-based
[2] = system: ECFC/ADSC co-culture cell nuclei number
[3] = system: endothelial tube formation in co-cultures of ECFCs and ADSCs treated with VEGF; assay: cells; format: cell-based, human
HCT116 = assay: cells; format: cell-based
HT-29 = assay: cells; format: cell-based
DLD-1 = assay: cells; format: cell-based
SW480 = assay: cells; format: cell-based
SNU-C1 = assay: cells; format: cell-based
[4] = assay number 26, GSK3b inhibitor pretreated

## CC(C)=CCC/C(C)=C/CC/C(C)=C/CC/C=C(\C)CC/C=C(\C)CCC=C(C)C [NCGC00181323-02]
[1]; assay number 26, GSK3b inhibitor pretreated, read-out: GSK3b inh pretreated_Viability ATP HCT116 summarized IC50
  IC50: > 20 µM
RKO; assay number 29, basal, read-out: Basal_Viability ATP RKO summarized IC50
  IC50: > 20 µM
Colo320; assay number 27, basal, read-out: Basal_Viability ATP Colo 320 summarized IC50
  IC50: > 20 µM
[2]; read-out: VEGF_ADSC\ECFC Angio Hoechst NucArea summarized IC50
  IC50: > 10 µM
[3]; read-out: VEGF_ADSC\ECFC Angio CD31 TubeArea summarized IC50
  IC50: > 10 µM
HCT116; assay number 25, basal, read-out: Basal_Viability ATP HCT116 summarized IC50
  IC50: > 20 µM
HT-29; assay number 28, basal, read-out: Basal_Viability ATP HT-29 summarized IC50
  IC50: > 20 µM
DLD-1; assay number 23, basal, read-out: Basal_Viability ATP DLD-1 summarized IC50
  IC50: > 20 µM
SW480; assay number 24, basal, read-out: Basal_Viability ATP SW480 summarized IC50
  IC50: > 20 µM
SNU-C1; assay number 30, basal, read-out: Basal_Viability ATP SNU-C1 summarized IC50
  IC50: > 20 µM

## CCOC(=O)[C@H](CCc1ccccc1)N[C@@H](C)C(=O)N1C(=O)N(C)C[C@H]1C(=O)O.Cl [NCGC00181342-02]
[1]; [4]
  GSK3b inh pretreated_Viability ATP HCT116 IC50/EC50: > 20 µM
RKO; assay number 29, basal
  Basal_Viability ATP RKO IC50/EC50: > 20 µM
Colo320; assay number 27, basal
  Basal_Viability ATP Colo 320 IC50/EC50: > 20 µM
[2]
  VEGF_ADSC\ECFC Angio Hoechst NucArea IC50/EC50: > 10 µM
[3]
  VEGF_ADSC\ECFC Angio CD31 TubeArea IC50/EC50: > 10 µM
HCT116; assay number 25, basal
  Basal_Viability ATP HCT116 IC50/EC50: > 20 µM
HT-29; assay number 28, basal
  Basal_Viability ATP HT-29 IC50/EC50: > 20 µM
DLD-1; assay number 23, basal
  Basal_Viability ATP DLD-1 IC50/EC50: > 20 µM
SW480; assay number 24, basal
  Basal_Viability ATP SW480 IC50/EC50: > 20 µM
SNU-C1; assay number 30, basal
  Basal_Viability ATP SNU-C1 IC50/EC50: > 20 µM

## Cc1cc2nc3ccc(=[N+](C)C)cc-3sc2cc1N.[Cl-] [NCGC00181775-02]
[1]
  GSK3b inh pretreated_Viability ATP HCT116 IC50/EC50: 1.693 µM
RKO
  Basal_Viability ATP RKO IC50/EC50: 0.9955 µM
Colo320
  Basal_Viability ATP Colo 320 IC50/EC50: 0.9874 µM
[2]
  VEGF_ADSC\ECFC Angio Hoechst NucArea IC50/EC50: 8.146 µM
[3]
  VEGF_ADSC\ECFC Angio CD31 TubeArea IC50/EC50: 2.45 µM
HCT116
  Basal_Viability ATP HCT116 IC50/EC50: 2.782 µM
HT-29
  Basal_Viability ATP HT-29 IC50/EC50: 5.063 µM
DLD-1
  Basal_Viability ATP DLD-1 IC50/EC50: 9.38 µM
SW480
  Basal_Viability ATP SW480 IC50/EC50: 1.397 µM
SNU-C1
  Basal_Viability ATP SNU-C1 IC50/EC50: 5.5567 µM

## O=C1NCCN1CCN1CCC(c2cn(-c3ccc(F)cc3)c3ccc(Cl)cc23)CC1 [NCGC00181782-03]
[1]
  IC50/EC50, GSK3b inh pretreated_Viability ATP HCT116 (assay number 26): 3.5177 µM
RKO; basal
  IC50/EC50, Basal_Viability ATP RKO (assay number 29): 2.6022 µM
Colo320; basal
  IC50/EC50, Basal_Viability ATP Colo 320 (assay number 27): 3.6991 µM
[2]
  IC50/EC50, VEGF_ADSC\ECFC Angio Hoechst NucArea (assay number 3): > 10 µM
[3]
  IC50/EC50, VEGF_ADSC\ECFC Angio CD31 TubeArea (assay number 2): > 10 µM
HCT116; basal
  IC50/EC50, Basal_Viability ATP HCT116 (assay number 25): 2.1598 µM
HT-29; basal
  IC50/EC50, Basal_Viability ATP HT-29 (assay number 28): 2.8613 µM
DLD-1; basal
  IC50/EC50, Basal_Viability ATP DLD-1 (assay number 23): 5.6233 µM
SW480; basal
  IC50/EC50, Basal_Viability ATP SW480 (assay number 24): 2.8086 µM
SNU-C1; basal
  IC50/EC50, Basal_Viability ATP SNU-C1 (assay number 30): 1.4252 µM

## CNS(=O)(=O)CCc1ccc2[nH]cc(C3CCN(C)CC3)c2c1.Cl [NCGC00181786-02]
[1]
  IC50/EC50, GSK3b inh pretreated_Viability ATP HCT116 (assay number 26): 12.1308 µM
RKO; basal
  IC50/EC50, Basal_Viability ATP RKO (assay number 29): > 20 µM
Colo320; basal
  IC50/EC50, Basal_Viability ATP Colo 320 (assay number 27): > 20 µM
[2]
  IC50/EC50, VEGF_ADSC\ECFC Angio Hoechst NucArea (assay number 3): > 10 µM
[3]
  IC50/EC50, VEGF_ADSC\ECFC Angio CD31 TubeArea (assay number 2): > 10 µM
HCT116; basal
  IC50/EC50, Basal_Viability ATP HCT116 (assay number 25): > 20 µM
HT-29; basal
  IC50/EC50, Basal_Viability ATP HT-29 (assay number 28): > 20 µM
DLD-1; basal
  IC50/EC50, Basal_Viability ATP DLD-1 (assay number 23): > 20 µM
SW480; basal
  IC50/EC50, Basal_Viability ATP SW480 (assay number 24): > 20 µM
SNU-C1; basal
  IC50/EC50, Basal_Viability ATP SNU-C1 (assay number 30): > 20 µM

## CCCCCCCC[N+](C)(C)CCCCCCCC [NCGC00182056-04]
[1]; [4]
  GSK3b inh pretreated_Viability ATP HCT116 IC50/EC50: 3.6902 µM
RKO; assay number 29, basal
  Basal_Viability ATP RKO IC50/EC50: 2.183 µM
Colo320; assay number 27, basal
  Basal_Viability ATP Colo 320 IC50/EC50: 4.6621 µM
[2]
  VEGF_ADSC\ECFC Angio Hoechst NucArea IC50/EC50: 7.431 µM
[3]
  VEGF_ADSC\ECFC Angio CD31 TubeArea IC50/EC50: 1.3911 µM
HCT116; assay number 25, basal
  Basal_Viability ATP HCT116 IC50/EC50: 6.2411 µM
HT-29; assay number 28, basal
  Basal_Viability ATP HT-29 IC50/EC50: 3.9986 µM
DLD-1; assay number 23, basal
  Basal_Viability ATP DLD-1 IC50/EC50: 3.2197 µM
SW480; assay number 24, basal
  Basal_Viability ATP SW480 IC50/EC50: 3.4577 µM
SNU-C1; assay number 30, basal
  Basal_Viability ATP SNU-C1 IC50/EC50: 1.4417 µM

## Cc1c(O)cc2c(c1C)O[C@](C)(CCC[C@H](C)CCC[C@H](C)CCCC(C)C)CC2 [NCGC00185764-03]
[1]; [4]
  GSK3b inh pretreated_Viability ATP HCT116 IC50/EC50: > 20 µM
RKO; assay number 29, basal
  Basal_Viability ATP RKO IC50/EC50: > 20 µM
Colo320; assay number 27, basal
  Basal_Viability ATP Colo 320 IC50/EC50: > 20 µM
[2]
  VEGF_ADSC\ECFC Angio Hoechst NucArea IC50/EC50: > 10 µM
[3]
  VEGF_ADSC\ECFC Angio CD31 TubeArea IC50/EC50: > 10 µM
HCT116; assay number 25, basal
  Basal_Viability ATP HCT116 IC50/EC50: > 20 µM
HT-29; assay number 28, basal
  Basal_Viability ATP HT-29 IC50/EC50: > 20 µM
DLD-1; assay number 23, basal
  Basal_Viability ATP DLD-1 IC50/EC50: > 20 µM
SW480; assay number 24, basal
  Basal_Viability ATP SW480 IC50/EC50: > 20 µM
SNU-C1; assay number 30, basal
  Basal_Viability ATP SNU-C1 IC50/EC50: > 20 µM
